{
  "source": "patent US4861774A",
  "about": "“Method of treating tumors using tetracyclo compounds” (priority 1984, dated 1989)",
  "key": {"[1]": {"assay": "Mixture ratios of the two components under various pH values", "assay_type": "physicochemical", "settings": "pH 1.0, 0.1 N hydrochloric acid", "method": "The FR-900482 substance was dissolved in various buffer solutions so as to make its concentration to 10 mg/ml. After allowing to stand for 2 hours, 4 μl of each of these solutions was subjected to silica gel thin layer chromatography using a mixture of chloroform and methanol (4:1, v/v) as a developing solvent. After developing, the mixture ratios of the two components were calculated by a chromatoscanner at 254 nm, the results of which are shown in the following."}, "Human LX-1 lung": {"tested_on": "Human LX-1 lung", "assay": "Human LX-1 lung tumor in nude mice (Test 9)", "assay_type": "in vivo, human (in BALB/c nu/nu mice)", "settings": "18.0 mg/kg i.v., days 12, 16 & 20; evaluation day 28", "method": "(§1) Human LX-1 lung or MX-1 mammary (each fragment, 2×2×2 mm), maintained s.c. by serial passage in male BALB/c nu/nu mice, was implanted s.c. to male BALB/c nu/nu mice on day 0, and the test compounds or vehicle were given i.v. to the mice once a day on specified days in Table 9.\n(§2) Tumor weight was calculated as follows: (Tumor length and width were measured by caliper.)\n(§3) Tumor weight (mg)=1/2×a×b^2, where a represents length and b represents width (mm).\n(§4) Tumor weights (initial) and (last) were calculated on the first injection day (just before dosing) and on day 21, 27 or 28 (the last evaluation day), respectively.\n(§5) Five mice were used for each test group and 5 or 10 mice were used for each vehicle-treated control group.\n(§6) Drug efficacy was expressed as percentage of mean tumor weight of the test group to that of the control group. [formula]"}, "L1210 Leukemia": {"tested_on": "L1210 Leukemia", "assay": "L1210 Leukemia ascitic tumor in mice (Test 5)", "assay_type": "in vivo, mice (BDF1 or CDF1)", "settings": "10.0 mg/kg i.p., days 1-9, BDF1 mice", "from_the_text": "L1210 Leukemia (1×10^5 cells), maintained i.p. by serial passage in female DBA/2 mice, was implanted i.p. to female BDF1 or CDF1 mice on day 0, and the test compounds or vehicle were given i.p. to the mice once a day on days 1-9.\nTen mice were used for each test group, and twenty mice were used for each vehicle-treated control group.\nDrug efficacy against the ascitic tumors is expressed as percentage of the median (mean) survival time of the test group to that of the control group. [formula] .circle.2 Results"}, "Human MX-1 mammary": {"tested_on": "Human MX-1 mammary", "assay": "Human MX-1 mammary tumor in nude mice (Test 9)", "assay_type": "in vivo, human (in BALB/c nu/nu mice)", "settings": "10.0 mg/kg i.v., days 11, 15 & 19; evaluation day 27", "method": "as §1, §2, §3, §4, §5, §6"}},
  "data": [
    {"molecule": "NC(=O)OCC1c2c(O)cc(C=O)cc2N2CC3NC3C1(O)O2", "note": "(stereo not shown) [FR-900482 substance, 4-Formyl-6,9-dihydroxy-14-oxa-1,11-diazatetracyclo[7.4.1.0^2,7.0^10,12]tetradeca-2,4,6-trien-8-ylmethyl carbamate]", "values": [
      {"measurement": "Ratios of the two components", "setting": "[1]", "value": "single component"},
      {"measurement": "1-T\"/C\"", "setting": "Human LX-1 lung", "value": 97, "unit": "%"},
      {"measurement": "T/C", "setting": "L1210 Leukemia", "value": "> 190", "unit": "%"},
      {"measurement": "1-T\"/C\"", "setting": "Human MX-1 mammary", "value": 100, "unit": "%"}
    ]}
  ]
}
